Experimental data reported in patent US9814739B2, “2′-ethynyl nucleoside derivatives for treatment of viral infections” (priority 2012, dated 2017).
Read-outs that look alike come from different tables or passages of the source.

Experiments:
[1] = tested on: GT1b HCV luciferase replicon; assay: HCV replicon antiviral EC50 assay; format: cell-based, Hepatitis C virus
[2] = 4 day CCK-8 cytotoxicity assay using THP-1 cells; format: cell-based; conditions: human, read-out: Dengue CC50 (THP-1)
Protocol: 3) Protocols for Automated 4 Days CCK8 (Dojindo) Cytotoxicity Assay in HepG2 and THP-1 Cells • 1. 25 μL of HepG2 suspension containing 1.6×10^4 cells/ml (400 cells/well) or 25 μL of THP-1 suspension containing 8×10^4 cells/ml (2000 cells/well) was dispensed into a clear 384-well plate by GNF dispenser 2B vertical-head. • 2. The plate was pre-incubated for 24 h in the GNF incubator (humidified, 37° C., 5% CO2). • 3. Serial-diluted compound were directly transferred into the culture media in the plate (200× dilution). • 4. Plates were incubated for 96 hours in the GNF incubator. • 5. CCK-8 was thawed on the bench-top, and was pre-diluted with media (2.5× dilutions). • 6. 35 μL of 2.5× diluted CCK8 was added to each well of the plate by GNF dispenser 1C angled-head. • 7. The plates were incubated for 3 hours in the incubator. • 8. The absorbance at 450 nm was measured by Envision. Dengue Assay on Cryopreserved PBMC Cells
THP-1 cells grown in suspension were counted and diluted to 8×10^4 cells/ml in RPMI-1640 media supplemented with 10% fetal bovine serum and 1% penicillin/streptomycin. 25 ul of the THP-1 containing media consisting of 2000 cells were dispensed in 384-well tissue culture plate and pre-incubated at room temperature for 30 minutes, followed by 37° C., 5% CO2 overnight in the humidified incubator. On the next day, serial-diluted compound plates were prepared and 125 nl of compounds at various concentrations were then dispensed into the tissue culture well (200× dilution). The plates were then transferred to 37° C., 5% CO2 humidified incubator for additional 96 hours. Cytotoxicity was measured by CCK-8 assay. Briefly, CCK-8 was thawed on bench top and diluted 2.5× with the growth media. 35 ul of the pre-diluted CCK-8 was then introduced into each well and the plates were then further incubated in 37° C., 5% CO2 humidified incubator for 3 hours. The absorbance was read by Envision at 450 nm. Dose response curves were plotted from the mean absorbance (n=2) versus the log of the concentration of test compounds. The EC50 is calculated by nonlinear regression analysis. A positive control (puromycin) was used to ensure the quality of the data.

Dengue virus = assay: Dengue assay on cryopreserved PBMC cells (plaque reduction readout on BHK cells); format: cell-based; conditions: human PBMC cells
Protocol: Cryopreserved human PBMC cells were purchased from approved vendors. It was then thawed according to manufacturer's instructions and suspended in RPMI medium supplemented with 1% penicillin/streptomycin solution and 10% Fetal Calf serum. The cells were then counted and viability checked (viability should be at least 70%). After centrifuging and removing the media, the cells were diluted to 1×10^7 cells/mL in RPMI medium supplemented with 1% penicillin/streptomycin. 50 μl of the cells were then dispensed into 96-well tissue culture plate constituting 5×10^5 cells/well. Next, virus with humanized 4G2 mixture was prepared for infection. Briefly, virus (2×10^7 pfu/ml) was mixed with humanized 4G2 antibody with the final antibody concentration of 0.38 μg/ml and incubated for 30 minutes at 4° C. to assist virus/antibody complex formation. The virus-antibody complex was then added to the PBMC at multiplicity of infection (M.O.I) of 0.5. The resulting media was then and further incubated the plates at 37° C. in the humidified incubator for infection to take place. Serial diluted compounds were then added and finally media was added such that the final media volume was 200 μl with 2% Fetal Calf Serum. The plates were then incubated at 37° C., 5% CO2 for another 48 hours. The extent of the infection and compound inhibition was measured by plaque reduction assay using BHK cells. Briefly, BHK cells grown in 24-well tissue culture were subjected to supernatants derived from infection containing serial diluted compounds. After additional 4 days, the monolayer of BHK cells were fixed, stained with crystal violet stain and plaques counted. Dose response curves were plotted from the mean absorbance (n=3) versus the log of the concentration of test compounds. The EC50 is calculated by nonlinear regression analysis. A positive control (7-deaza-2′-C-acetylene-adenosine) was used to ensure the quality of the data.

[3] = tested on: Replicon cells, expressing the GT1b HCV luciferase replicon
in vitro = conditions: HCV GT1b CC50 (uM)
HCV polymerase = HCV polymerase (Hepatitis C virus genotype 1b, UniProt Q9WMX2); assay: biochemical
HCV polymerase, sequence (Q9WMX2 2420-3010 limits assumed): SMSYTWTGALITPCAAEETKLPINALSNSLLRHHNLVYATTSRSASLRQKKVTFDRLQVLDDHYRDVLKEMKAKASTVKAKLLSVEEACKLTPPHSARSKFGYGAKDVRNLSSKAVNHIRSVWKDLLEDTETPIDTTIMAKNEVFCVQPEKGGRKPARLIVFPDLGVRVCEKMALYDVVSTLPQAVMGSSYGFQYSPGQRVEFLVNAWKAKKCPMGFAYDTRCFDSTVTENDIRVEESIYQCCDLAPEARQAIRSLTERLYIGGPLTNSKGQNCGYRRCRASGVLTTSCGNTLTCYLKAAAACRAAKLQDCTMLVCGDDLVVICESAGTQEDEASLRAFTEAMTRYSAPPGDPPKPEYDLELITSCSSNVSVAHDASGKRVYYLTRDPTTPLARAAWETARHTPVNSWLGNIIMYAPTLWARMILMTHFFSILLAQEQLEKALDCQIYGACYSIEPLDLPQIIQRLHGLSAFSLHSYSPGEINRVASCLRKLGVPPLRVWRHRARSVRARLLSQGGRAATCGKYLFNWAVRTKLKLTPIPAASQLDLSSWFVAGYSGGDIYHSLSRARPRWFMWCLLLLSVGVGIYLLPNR

Dengue polymerase [4] = biological target: T1, Dengue polymerase (Dengue virus type 2, UniProt P29990); assay: biochemical; conditions: De novo
T1 sequence (P29990 2492-3391 limits assumed): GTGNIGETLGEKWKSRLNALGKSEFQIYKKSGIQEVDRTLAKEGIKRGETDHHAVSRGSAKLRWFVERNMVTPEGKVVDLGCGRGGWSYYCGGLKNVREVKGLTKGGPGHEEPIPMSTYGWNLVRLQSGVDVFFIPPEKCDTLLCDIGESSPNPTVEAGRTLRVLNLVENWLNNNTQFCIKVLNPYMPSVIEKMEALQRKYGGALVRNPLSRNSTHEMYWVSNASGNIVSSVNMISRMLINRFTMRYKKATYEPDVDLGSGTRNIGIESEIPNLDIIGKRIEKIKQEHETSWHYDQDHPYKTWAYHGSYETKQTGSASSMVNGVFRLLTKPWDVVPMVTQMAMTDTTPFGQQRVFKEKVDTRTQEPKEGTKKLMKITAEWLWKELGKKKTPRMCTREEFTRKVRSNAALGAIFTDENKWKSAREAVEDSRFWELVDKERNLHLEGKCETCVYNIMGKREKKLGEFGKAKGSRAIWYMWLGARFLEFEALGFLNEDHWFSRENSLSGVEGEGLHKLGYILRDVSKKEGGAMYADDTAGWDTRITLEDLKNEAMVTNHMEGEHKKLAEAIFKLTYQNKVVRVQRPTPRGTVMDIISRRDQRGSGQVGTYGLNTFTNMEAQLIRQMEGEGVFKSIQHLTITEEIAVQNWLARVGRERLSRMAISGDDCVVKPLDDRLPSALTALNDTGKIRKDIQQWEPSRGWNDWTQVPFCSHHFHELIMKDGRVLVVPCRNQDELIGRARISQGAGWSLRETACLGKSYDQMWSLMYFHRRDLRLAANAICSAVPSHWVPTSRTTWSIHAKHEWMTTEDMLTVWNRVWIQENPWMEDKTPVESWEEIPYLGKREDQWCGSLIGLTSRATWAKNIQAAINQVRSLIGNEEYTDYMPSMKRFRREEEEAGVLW

Dengue polymerase [5] = biological target: T1, Dengue polymerase; assay: biochemical; conditions: Elongation

IC50 (HCV polymerase) [nM] | IC50 (Dengue polymerase [4]) [nM] | IC50 (Dengue polymerase [5]) [nM] | Structure (SMILES) | EC50 ([1]; Hepatitis C virus, GT1B, 72 h, read-out: HCV GT1b EC50 (uM)) [µM] | EC50 ([1]; read-out: HCV GT1b EC50) [µM] | CC50 at 96 h [2] [nM] | EC50 (Dengue virus; Dengue virus, PBMC, 48 h) [nM] | EC50 (Dengue virus; 48 hours) [nM] | CC50 [3] [nM] | CC50 (in vitro) [µM]
 |  |  | C#C[C@@]1(O)[C@H](O)[C@@H](CO[P@@](=O)(N[C@@H](C)C(=O)OC(C)C)Oc2ccccc2)O[C@H]1n1ccc(=O)[nH]c1=O (single isomer, unassigned) [Example 1] | 0.066 | 0.098 | > 50000 | 400 | 230 | > 20000 | > 25
8300 | 2900 | 1200 | C#C[C@@]1(O)[C@H](O)[C@@H](COP(=O)(O)OP(=O)(O)OP(=O)(O)O)O[C@H]1n1ccc(=O)[nH]c1=O [Example 1.8, ((2R,3R,4R,5R)-5-(2,4-dioxo-3,4-dihydropyrimidin-1(2H)-yl)-4-ethynyl-3,4-dihydroxytetrahydrofuran-2-yl)methyl tetrahydrogen triphosphate] |  |  |  |  |  |  | 
 | 3400 | 2100 | CC#C[C@@]1(O)[C@H](O)[C@@H](COP(=O)(O)OP(=O)(O)OP(=O)(O)O)O[C@H]1n1ccc(=O)[nH]c1=O [Example 1.9, ((2R,3R,4R,5R)-5-(2,4-dioxo-3,4-dihydropyrimidin-1(2H)-yl)-3,4-dihydroxy-4-(prop-1-yn-1-yl)tetrahydrofuran-2-yl)methyl tetrahydrogen triphosphate] |  |  |  |  |  |  | 
